The target of the test is T1, IRAK4 (Homo sapiens, UniProt Q9NWZ3).
T1 construct: endogenous in cells; host or cells: OCI-LY10
T1 sequence (Q9NWZ3 1-460): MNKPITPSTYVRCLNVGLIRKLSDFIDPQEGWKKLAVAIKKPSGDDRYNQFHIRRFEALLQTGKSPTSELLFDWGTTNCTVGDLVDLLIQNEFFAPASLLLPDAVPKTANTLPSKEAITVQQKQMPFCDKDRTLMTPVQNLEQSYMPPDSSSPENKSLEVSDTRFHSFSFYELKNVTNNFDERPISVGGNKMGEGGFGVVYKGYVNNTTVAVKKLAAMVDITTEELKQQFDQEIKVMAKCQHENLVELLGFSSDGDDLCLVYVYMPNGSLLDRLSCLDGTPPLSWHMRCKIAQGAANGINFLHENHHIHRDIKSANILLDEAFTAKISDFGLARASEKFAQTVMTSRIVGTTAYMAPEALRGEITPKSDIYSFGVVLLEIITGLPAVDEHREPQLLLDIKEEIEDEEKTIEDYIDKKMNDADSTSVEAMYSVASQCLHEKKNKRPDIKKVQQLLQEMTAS
As to the kind of experiment: IRAK4 MSD Degradation in OCI-LY10. Conditions: OCI-LY10 cells, Meso Scale Discovery, incubated 4 to 24 hours. The test is classed as cell-based. In short, it runs like this: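 IRAK4 degradation was quantified by Meso Scale electrochemiluminescence (anti-IRAK4 capture and detection antibodies) in lysates of treated OCI-LY10 cells. Compounds were dosed at 8 concentrations (1:3 dilutions, top 1 to 10 μM) for 4 to 24 h; DC50 derived by three-parameter logistic fitting.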

As usually defined, the DC50 is the concentration giving 50% degradation. High values mean degradation only at high concentration, low ones degradation at low concentration.

For `CCn1c(=O)n(C2CCC(=O)NC2=O)c2cccc(N3CCN(C[C@H]4CC[C@H](n5cc6cc(NC(=O)c7cccc(C(F)(F)F)n7)c(OC)cc6n5)CC4)CC3)c21` (stereo partly shown) [I-253], the DC50 was < 10 nM.

Regarding `COc1cc2nn([C@H]3CC[C@H](CN(C)C4CCN(c5c(Cl)ccc6c5n(C)c(=O)n6C5CCC(=O)NC5=O)CC4)CC3)cc2cc1NC(=O)c1cccc(C(F)(F)F)n1` (stereo partly shown) [I-53], the DC50 was 10 to 50 nM. For the compound `COc1cc2nn([C@H]3CC[C@H](CN4CCC(c5cc(F)cc6c5n(C)c(=O)n6C5CCC(=O)NC5=O)CC4)CC3)cc2cc1NC(=O)c1cccc(C(F)(F)F)n1` (stereo partly shown) [I-52], the DC50 was < 10 nM.

Take `Cn1c(=O)n(C2CCC(=O)NC2=O)c2ccc(F)c(C3CCN(C[C@H]4CC[C@H](n5cc6cc(NC(=O)c7cccc(C#N)n7)ccc6n5)CC4)CC3)c21` (stereo partly shown) [I-128]: the DC50 was < 10 nM. In the case of `Cc1cc2nn([C@H]3CC[C@H](CN4CCC(c5cccc6c5n(C)c(=O)n6C5CCC(=O)NC5=O)CC4)CC3)cc2cc1NC(=O)c1cccc(C(F)(F)F)n1` (stereo partly shown) [I-70], the half-maximal degradation concentration (DC50) was < 10 nM. In the case of `Cc1cc2nn([C@H]3CC[C@H](CN4C5CCC4CN(c4cccc6c4n(C)c(=O)n6C4CCC(=O)NC4=O)C5)CC3)cc2cc1NC(=O)c1cccc(C(F)(F)F)n1` (stereo partly shown) [I-398], the DC50 is < 10 nM. Consider `CSc1cc2nn([C@H]3CC[C@H](CN4CCN(c5cccc6c5n(C)c(=O)n6C5CCC(=O)NC5=O)CC4)CC3)cc2cc1NC(=O)c1cccc(C(F)(F)F)n1` (stereo partly shown) [I-307], for which the DC50 is < 10 nM.

In the case of `CC(C)(O)c1cc2nc([C@H]3CC[C@H](C(=O)N4CCN(CCNc5cccc6c5C(=O)N(C5CCC(=O)NC5=O)C6=O)CC4)CC3)sc2cc1NC(=O)c1cncc(C#N)c1` (stereo partly shown) [I-431], the DC50 is > 200 nM.

On to `COc1cc2nc([C@H]3CC[C@H](CN(C)CCCNc4cccc5c4C(=O)N(C4CCC(=O)NC4=O)C5=O)CC3)sc2cc1NC(=O)c1cncc(F)c1` (stereo partly shown) [I-482], for which the DC50 is > 200 nM. For the compound `COc1cc2nn([C@H]3CC[C@H](CN4CCC(c5ccc(F)c6c5n(C)c(=O)n6C5CCC(=O)NC5=O)CC4)CC3)cc2cc1NC(=O)c1cccc(C(F)(F)F)n1` (stereo partly shown) [I-51], the DC50 was < 10 nM. For `CN(CCCO[C@H]1C[C@H](Nc2cccc3c2C(=O)N(C2CCC(=O)NC2=O)C3=O)C1)C[C@H]1CC[C@H](n2cc3cc(NC(=O)c4cccc(C(F)(F)F)n4)ccc3n2)CC1` (stereo partly shown) [I-354], the DC50 was > 200 nM. As to `CN(CCCNc1cccc2c1C(=O)N(C1CCC(=O)NC1=O)C2=O)C[C@H]1CC[C@H](c2nc3cc(C(C)(C)O)c(NC(=O)c4cncc(Cl)c4)cc3s2)CC1` (stereo partly shown) [I-476], the DC50 is > 200 nM. On to `COc1cc2nc([C@H]3CC[C@H](CN(C)CCCCNc4cccc5c4C(=O)N(C4CCC(=O)NC4=O)C5=O)CC3)sc2cc1NC(=O)c1cncc(Cl)c1` (stereo partly shown) [I-480], for which the DC50 was > 200 nM. Regarding `CC(C)Nc1c(C(=O)N[C@H]2CC[C@H](CN3CCC(c4cccc5c(N6CCC(=O)NC6=O)cncc45)CC3)CC2)cnc2c1Oc1ccc(C#N)cc1O2` [I-310], the DC50 is > 200 nM.

On to `Cc1cc2nn([C@H]3CC[C@H](CN4C5CC4CN(c4cccc6c4n(C)c(=O)n6C4CCC(=O)NC4=O)C5)CC3)cc2cc1NC(=O)c1cccc(C(F)(F)F)n1` (stereo partly shown) [I-396], for which the DC50 fell in the range of 10 to 50 nM. Consider `COc1cc2nn([C@H]3CC[C@H](CN4CCC(c5cccc6c5n(C)c(=O)n6C5CCC(=O)NC5=O)CC4)CC3)cc2cc1NC(=O)c1cncc(C(F)(F)F)c1` (stereo partly shown) [I-86], for which the DC50 is < 10 nM. `Cn1c(=O)n(C2CCC(=O)NC2=O)c2cccc(C3CCN(C[C@H]4CC[C@H](n5cc6cc(NC(=O)c7cncc(C#N)c7)c(OC(F)(F)F)cc6n5)CC4)CC3)c21` (stereo partly shown) [I-325]: the DC50 was > 200 nM. Consider `O=C1CCN(c2cncc3cc(C4CCN(C[C@H]5CC[C@H](c6nc7ccc(NC(=O)c8cccc(C(F)(F)F)n8)cc7s6)CC5)CC4)ccc23)C(=O)N1` [I-181], for which the DC50 is > 200 nM. Regarding `Cn1c(=O)n(C2CCC(=O)NC2=O)c2cccc(C3CCN(C[C@H]4CC[C@H](N5Cc6cc(NC(=O)c7cccc(C(F)(F)F)n7)c(N7C[C@H]8C[C@@H]7CO8)cc6C5=O)CC4)CC3)c21` (stereo partly shown) [I-29], the DC50 was < 10 nM.
